From ChEMBL document CHEMBL5728714, “Aryl heterocyclic piperidinone formyl peptide 2 receptor and formyl peptide 1 receptor agonists” (2021)

Target: T1, N-formyl peptide receptor 2 (Homo sapiens, UniProt P25090)
T1 sequence (P25090 whole entry): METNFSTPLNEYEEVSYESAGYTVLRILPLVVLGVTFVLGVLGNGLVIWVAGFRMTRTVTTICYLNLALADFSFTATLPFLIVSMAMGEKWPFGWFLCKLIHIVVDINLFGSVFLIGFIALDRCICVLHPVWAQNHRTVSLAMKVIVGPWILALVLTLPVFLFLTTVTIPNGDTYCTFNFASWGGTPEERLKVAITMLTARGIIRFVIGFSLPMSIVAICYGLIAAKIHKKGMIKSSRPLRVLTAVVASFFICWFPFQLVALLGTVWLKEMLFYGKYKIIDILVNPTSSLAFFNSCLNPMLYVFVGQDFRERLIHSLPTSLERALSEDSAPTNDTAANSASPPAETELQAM
Assay: FPR2 and FPR1 Cyclic Adenosine Monophosphate (cAMP) Assays: A mixture of forskolin (5 μM final for FPR2 or 10 μM final for FPR1) and IBMX (200 μM final) were added to 384-well Proxiplates (Perkin-Elmer) pre-dotted with test compounds in DMSO (1% final) at final concentrations in the range of 1.7 nM to 100 μM. Chinese Hamster Ovary cells (CHO) overexpressing human FPR1 or human FPR2 receptors were cultured in F-12 (Ham's) medium supplemented with 10% qualified FBS, 250 μg/ml zeocin and 300 μg/ml hygromycin (Life Technologies). Reactions were initiated by adding 2,000 human FPR2 cells per well or 4,000 human FPR1 cells per well in Dulbecco's PBS (with calcium and magnesium) (Life Technologies) supplemented with 0.1% BSA (Perkin-Elmer). The reaction mixtures were incubated for 30 min at room temperature. The level of intracellular cAMP was determined using the HTRF HiRange cAMP assay reagent kit (Cisbio) according to manufacturer's instruction. Solutions of cryptate conjugated anti-cAMP and d2 flurorophore-labelled cAMP were made in a supplied lysis buffer separately. Upon completion of the reaction, the cells were lysed with equal volume of the d2-cAMP solution and anti-cAMP solution. After a 1-h room temperature incubation, time-resolved fluorescence intensity was measured using the Envision (Perkin-Elmer) at 400 nm excitation and dual emission at 590 nm and 665 nm. […]
Format: cell-based

SMILES	EC50 [nM]
O=C(Nc1ccc(C(F)(F)F)cc1)N[C@@H]1CCCN(c2ccc(C3CCOCC3)cc2)C1=O	< 10
O=C(Nc1cnc(Cl)cn1)N[C@@H]1CCCN(c2ccc(C3(CN4CCOCC4)CC3)cc2)C1=O	< 10
